Consider 1 molecule from US12084444B2, “Spiro-lactam NMDA modulators and methods of using same” (Tenacia Biotechnology (Hong Kong) Co., Limited, priority 2016, dated 2024).

Test [1] has as its system Sprague Dawley rats. Description: Porsolt forced swim test. Type of test: in vivo. The following applies: 0.1 mg/kg; for % reduction in float time: relative to vehicle group. As for the experimental part:
A non-clinical in vivo pharmacology study (Porsolt assay) was performed to measure antidepressant-like effects. A negative control (0.5% sodium carboxymethyl cellulose in 0.9% sterile saline vehicle) and a positive control (fluoxetine) are shown for comparison against test compound. The study allowed for the evaluation of the effects of each compound on the Porsolt forced swim test as assessed by the rats' response (reduced floating time) during a 5-minute swimming test.
Male 2-3 month old Sprague Dawley rats were used (Harlan, Indianapolis, IN). Rats were housed in Lucite cages with aspen wood chip bedding, maintained on a 12:12 light:dark cycle (lights on at 5 AM), and given ad libitum access to Purina lab chow (USA) and tap water throughout the study.
The Porsolt forced swim test adapted for use in rats was performed as described by Burgdorf et al., (The long-lasting antidepressant effects of rapastinel (GLYX-13) are associated with a metaplasticity process in the medial prefrontal cortex and hippocampus. Neuroscience 308:202-211, 2015). Animals were placed in a 46 cm tall×20 cm in diameter clear glass tube filled to 30 cm with tap water (23±1° C.) for 15 min on the first day (habituation) and 5 min on the subsequent test day. Positive control fluoxetine was dosed 3 times (24 h, 5 h and 1 h) prior to testing. Animals were tested 1 h or 24 h post-dosing with the test compounds or vehicle. Animals received a 15 min habituation session 1 day before the 5 min test. Water was changed after every other animal. Animals were videotaped, and floating time as defined as the minimal amount of effort required to keep the animals head above water was scored offline by a blinded experimenter with high inter-rater reliability (Pearson's r>0.9).
Each compound tested at dose level shown. Significance vs. vehicle group for each experiment is marked. […] A compound marked “No” was not statistically significant from vehicle. Data was averaged for test compound and vehicle groups (N approximately 8 per group) and the percent reduction in floating for group treated with test compound relative to group treated with vehicle is shown.

In test [2] the test system is Sprague Dawley rats. The test is described as follows: Bennett model of mechanical analgesia (sciatic nerve chronic constriction injury). Type of test: in vivo. As for the experimental part:
The Bennett model of mechanical analgesia is used to assess the analgesic effects of compounds as measured by paw withdrawal threshold. Bennett G J, Xie Y K, “A peripheral mononeuropathy in rat that produces disorders of pain sensation like those seen in man,” Pain 33:87-107, 1988. […] Vehicle animals receive the surgery and then receive vehicle rather than test compound. Animals were tested 1 hr, 24 h and 1 wk post-test compound or vehicle administration.
Male 2-3 month old Sprague Dawley rats were used. Harlan was the supplier for all studies. Rats were housed in Lucite cages with aspen wood chip bedding, maintained on a 12:12 light:dark cycle (lights on at 5 AM), and given ad libitum access to Purina lab chow (USA) and tap water throughout the study.
Rats were anesthetized using inhaled isoflurane (2.5%). Sciatic nerve chronic constriction nerve injury surgery was performed as previously described (Bennett and Xie, 1988). An incision (˜1.5 cm in length) was made with a scalpel blade dorsally through skin on the right hind limb, parallel and posterior to femur. Using a small pointed hemostat, the biceps femoris and gluteus superficialis muscles were separated. Using curved blunt forceps, the common sciatic nerve was isolated and exposed. For the mechanical analgesia studies, the whole sciatic nerve was ligated. Using hemostats/forceps and chromic gut (5-0), the nerve was loosely ligated with a square knot; 3 ligatures, 1 mm apart were placed on the nerve. […] Testing occurred approximately 2 weeks post-surgery.
During testing, rats were acclimated to the surface of a suspended wire mesh grid (1 cm×1 cm, with the wire being 0.3 cm in diameter) for 15-20 min. Starting from the smallest, each Von Frey filament was pressed perpendicularly to the plantar surface of the affected (ipsilateral) hind paw until slightly bent and then held for 6 second. If an obvious hind paw withdrawal or a flinching behavior immediately after the withdrawal of the filament was not observed, the next larger filament was used in the same manner. In case of a response, a lower filament was used. This was repeated until six responses were collected.
For all studies, animals were baselined prior to study start to test for allodynia (defined as a paw withdrawal threshold under 5). A subset of animals was tested with gabapentin (150 mg/kg, PO) to ensure at least 50% analgesia. Once it was confirmed animals were ready for study initiation, animals were balanced across groups. All study investigators were blind to treatment conditions. Animals were dosed with 0.1, 1, 10, or 30 mg/kg of test compound via oral gavage (PO), control sets of animals were dosed with gabapentin (150 mg/kg, PO) or vehicle (0.5% Na-CMC in 0.9% sterile saline, PO). Testing occurred 1 h post-dosing with animals retested 24 hrs and 1 week post-dosing. The percent analgesia calculations for each animal were made using the following equation: % analgesia=[(log(x)−y)/((log (z)−y)]*100, where x=the paw withdrawal threshold for the drug-treated animal in grams, y=the average of the log(x) values for the vehicle treated group, and z=the paw withdrawal threshold for naïve animals in grams (historical value of 15 used). The results for Compound AA-2, where the percentage of analgesia is measured at 1 hour, 24 hours, and 1 week after compound administration are as follows: for 0.1 mg/kg dose: 22.3% at 1 h, 1.6% at 24 h, and 2.3% at 1 wk; for 1 mg/kg dose: 19.2% at 1 h, 10.7% at 24 h, and 11.0% at 1 wk; for 10 mg/kg dose: 38.1% at 1 h, 24.3% at 24 h, and 41.4% at 1 wk; and for 30 mg/kg dose: 24.4% at 1 h, 8.7% at 24 h, and 34.5% at 1 wk.

`COc1ccc(CN2C[C@@]3(CCNC(=O)C3)C2=O)cc1` [Compound AA-2, 2-(4-methoxybenzyl)-2,7-diazaspiro[3.5]nonane-1,6-dione]: the Significance vs. vehicle result with Sprague Dawley rats [1] (1 h post-dose) and in the test with Sprague Dawley rats [1] (24 h post-dose) was “Yes (found to be statistically significant (p<=0.05) from vehicle at dose level shown)” throughout. Besides, the “% reduction in float time” value is recorded as 51.5% with Sprague Dawley rats [1] (1 h post-dose) and 77.80% in the test on Sprague Dawley rats [1] (24 h post-dose). Moreover, the “% analgesia” value in the test with Sprague Dawley rats [2] (0.1 mg/kg PO, 1 wk) is 2.3%; in the test on Sprague Dawley rats [2] (0.1 mg/kg PO, 1 h), 22.3%; with Sprague Dawley rats [2] (0.1 mg/kg PO, 24 h), 1.6%; in the test on Sprague Dawley rats [2] (1 mg/kg PO, 1 wk) it was 11.0%; in the test on Sprague Dawley rats [2] (1 mg/kg PO, 1 h) it was 19.2%; with Sprague Dawley rats [2] (1 mg/kg PO, 24 h), 10.7%. For the same molecule, the “% analgesia” value in the test on Sprague Dawley rats [2] (10 mg/kg PO, 1 wk) is listed as 41.4%; in the test on Sprague Dawley rats [2] (10 mg/kg PO, 1 h) it was 38.1%; in the test on Sprague Dawley rats [2] (10 mg/kg PO, 24 h), 24.3%; with Sprague Dawley rats [2] (30 mg/kg PO, 1 wk), 34.5%; in the test with Sprague Dawley rats [2] (30 mg/kg PO, 1 h) it was 24.4%; in the test with Sprague Dawley rats [2] (30 mg/kg PO, 24 h) it was 8.7%.
